The values below come from paper PMC7175277, “Hydroxylamine Analogue of Agmatine: Magic Bullet for Arginine Decarboxylase” (Biomolecules, 2020).

The term IC50 denotes the concentration at which inhibition is half-maximal. The low end stands for higher potency, the high end for lower potency. In general, inhibition refers to the percentage by which the read-out fell short of the control. By Km is commonly meant the concentration of substrate that gives half-maximal velocity.

One series has as its target E. coli ODC (Escherichia coli, UniProt P21169). The series is described as follows: E. coli ODC activity assay (HPLC of Put). The class given is biochemical. As for the experimental part:
(§1) The purification was performed using a modified procedure of earlier publication. E. coli strain DH5α was grown in Luria-Bertani broth at +37 °C with shaking (200 rpm) overnight. The cells were collected by centrifugation and the pellet was homogenized with Potter-Elvehjem in 10 volumes (w/v) of ice-cold 50 mM Tris-HCl pH 7.4, 1 mM DTT. The cell debris was removed by centrifugation at 12,000 g for 30 min at +4 °C. Solid (NH4)2SO4 was added to the supernatant, and the pellet precipitating between 39% and 53% saturation was separated. The precipitate was resuspended in ice-cold buffer containing 50 mM Tris-HCl pH 7.4 and 1 mM DTT and desalted by passage through Sephadex G-25 column (NAP-10 column, GE Healthcare). The protein concentration was measured with Bio-Rad protein reagent, and the partially purified enzyme preparation was mixed with 20% glycerol and aliquoted for storage at −80 °C.
The ADC reaction mixture contained 50 mM Tris-HCl pH 7.8, 4 mM MgCl2, 1 mM DTT, 1.0 or 0.1 mM PLP and 20 μg of partially purified enzyme preparation in a total volume of 162 μL. The ODC reaction mixture contained 50 mM Tris-HCl pH 7.8, 1 mM EDTA, 2.4 mM DTT, 0.1 mM PLP and 20 μg of partially purified enzyme preparation. […] After incubation for 30 min (ADC) or 20 min (ODC) at +40 °C, 20 μL of 50% sulphosalicylic acid containing 50 μM diaminoheptane (internal standard) was added and the samples were analyzed for the content of agmatine (ADC) and Put (ODC) with HPLC as described previously. The kinetic parameters and IC50 values were determined with the aid of GraphPad Prism version 5.03 using nonlinear regression analysis.

The next series has as its target T1, E. coli ADC (Escherichia coli, UniProt P21170).
T1 construct: The kinetic parameters determined for the partially purified biosynthetic ADC from E. coli; endogenous in cells; host or cells: E. coli DH5α (39-53% ammonium sulphate fraction of the lysate, desalted)
T1 sequence (P21170 1-658): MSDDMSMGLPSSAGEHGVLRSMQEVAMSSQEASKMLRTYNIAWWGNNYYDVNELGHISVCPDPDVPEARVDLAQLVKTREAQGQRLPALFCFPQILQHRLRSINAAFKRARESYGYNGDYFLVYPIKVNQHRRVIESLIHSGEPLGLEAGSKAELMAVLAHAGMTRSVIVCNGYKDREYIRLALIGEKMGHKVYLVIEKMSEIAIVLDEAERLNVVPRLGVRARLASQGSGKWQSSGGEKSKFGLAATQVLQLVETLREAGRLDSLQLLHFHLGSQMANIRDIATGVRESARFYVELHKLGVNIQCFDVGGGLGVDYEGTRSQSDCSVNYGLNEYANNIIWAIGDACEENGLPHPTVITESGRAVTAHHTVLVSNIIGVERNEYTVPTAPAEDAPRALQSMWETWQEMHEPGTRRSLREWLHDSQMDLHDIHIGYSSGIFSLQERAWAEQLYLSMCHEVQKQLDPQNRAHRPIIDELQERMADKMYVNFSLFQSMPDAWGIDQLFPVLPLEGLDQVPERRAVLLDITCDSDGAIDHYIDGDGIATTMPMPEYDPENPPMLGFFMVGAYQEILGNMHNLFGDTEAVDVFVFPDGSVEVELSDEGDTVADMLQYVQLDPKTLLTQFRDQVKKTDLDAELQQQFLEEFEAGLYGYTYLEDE
The series is described as follows: E. coli ADC activity assay (HPLC of agmatine). In kind it is biochemical. To be noted: 0.1 mM PLP; 15 min preincubation; 0.15 mM L-Arg. As for the experimental part: as §1
[…] The ODC reaction mixture contained 50 mM Tris-HCl pH 7.8, 1 mM EDTA, 2.4 mM DTT, 0.1 mM PLP and 20 μg of partially purified enzyme preparation. The mixtures were either preincubated or not preincubated for 15 min at +40 °C in the presence of the inhibitor, after which the reaction was started by the addition of 18 μL of 10× substrate (L-Arg for ADC and L-Orn for ODC). After incubation for 30 min (ADC) or 20 min (ODC) at +40 °C, 20 μL of 50% sulphosalicylic acid containing 50 μM diaminoheptane (internal standard) was added and the samples were analyzed for the content of agmatine (ADC) and Put (ODC) with HPLC as described previously. The kinetic parameters and IC50 values were determined with the aid of GraphPad Prism version 5.03 using nonlinear regression analysis.

The test system of series [1] is Acremonium chrysogenum high-cephalosporin-yielding (HY) RNCM F-4081D. The series is described as follows: Fungal growth inhibition (drop-dilution, CD agar), HY strain. Conditions: for inhibition at 5000 µM: Hapsidospora chrysogena, 336 h, read-out: Growth inhibition. In kind it is cell-based. From the text: (§2) Two strains of Acremonium chrysogenum were used in this study: the wild-type (Brotzu) isolate ATCC 11550 (WT) and high-cephalosporin-yielding RNCM F-4081D (HY), derived from the WT [37]. The cultivation conditions were the same as previously described. The filamentous fungi were cultivated on agarized Czapek-Dox (CD) medium (30 g/L sucrose, 2 g/L NaNO3, 1 g/L K2HPO4, 0.5 g/L MgSO4×7 H2O, 0.5 g/L KCl, 0.01 g/L FeSO4×7 H2O, 20 g/L agar, pH 7.0–7.4). To determine the toxic effect of AO-Agm, APA, DFMA and DFMO on the growth of fungal cells the drop-dilution method was used with some modifications as described earlier. Cells were collected from agar slants and diluted with 0.9% NaCl solution up to OD600 = 0.5 (basic concentration), followed by serial tenfold dilutions with the same solution. […] The inoculated Petri dishes were incubated for 21 days at 26 °C. The inhibitory effects of the compounds were measured every three days after inoculation and evaluated by measuring the ratio of colony growth on agarized CD medium supplemented with AO-Agm, APA, DFMA, or DFMO to the growth in the control (agarized CD medium without any additions). The formula: growth inhibition % = [(Dc − Dt)/Dc] × 100, where Dc indicates the colony diameter in control set, and Dt indicates the colony diameter in the treatment set that was used to determine the percent of fungal growth inhibition. The data recorded were measured in triplicate and repeated at least twice.

The subject of series [2] is Acremonium chrysogenum wild-type (WT) ATCC 11550. Kind of series: Fungal growth inhibition (drop-dilution, CD agar), WT strain. In kind it is cell-based. Conditions: for inhibition at 5000 µM: Hapsidospora chrysogena, ATCC11550, 336 h, 14 days after inoculation on CD medium.
From the text: as §2

The next series relates to A. chrysogenum HY strain. Kind of series: Polyamine content in the fungi, HY strain. The class given is cell-based, Acremonium chrysogenum. Conditions: 24 h. As for the experimental part: (§3) WT and HY A. chrysogenum strains were preliminarily grown in tubes on CD medium slants for 7 days at 25 °C and used for the inoculation of 30 mL of a liquid CD medium (seed medium). The strains were cultivated on CD medium for 48 h at 26 °C and inoculated into ten volumes of CD medium. The fermentation was carried out for 120 h at 26 °C in 250-mL Erlenmeyer flasks on a CERTOMAT BS-1 shaker (Sartorius, Germany) at 230 rpm, as described earlier. After 24 h of culture, 1 mL aliquots were removed, fungi were separated by centrifugation (15 min, 14,000 g) and washed with H2O (3 × 2 mL). The washed biomass was subjected to three cycles of freezing (−80 °C) and thawing at 20 °C in 5% perchloric acid. After the final thaw, samples were vortexed for 2 min and centrifuged for 10 min at 14,000 g. The supernatant was used for the determination of polyamine content.
(§4) The dry biomass was prepared from 2 mL aliquots of fermentation media after 24 h. The biomass was separated by centrifugation (15 min, 14,000 g), the precipitated fungi cells were washed in triplicate with 10 volumes of H2O, dried at 80 °C for 96 h to a constant weight and used for normalization of polyamine content in the fungi.
(§5) Polyamines were determined by HPLC from 50 µL of the 5% perchloric acid supernatant using a precolumn modification with Dans-Cl following mostly the published protocol. 1,7-Diaminoheptane was used as an internal standard and proline applied to quench the dansylation reaction. The solution of the dansylated polyamines in toluene (2 μL) was mixed with 50% aq. ethanol (13 µL) and applied on a reversed phase column (Cosmosil C18-MS-II, 250 × 4.6 mm, 5 µm). The column was eluted (1 mL/min) with the gradient: 0 min—0% B; 4 min—65% B; 17 min—65% B; 19 min—100% B, 23 min—100% B, 25 min—0% B; 30 min—0% B. System A—40% acetonitrile, 60% H2O. System B—80% acetonitrile, 20% tetrahydrofuran. Column temperature 40 °C, pressure 80–120 bar, fluorescent detection: λex 340 nm, λem 530 nm (detector RF-20A, Shimadzu Scientific Instrument, Columbia, MD, USA).

A further series deals with A. chrysogenum WT strain. The series is described as follows: Polyamine content in the fungi, WT strain. The class given is cell-based, Acremonium chrysogenum. To be noted: 24 h. As for the experimental part:
as §3, §4, §5

Series [3] deals with DU145 prostate cancer cells. Kind of series: Growth of DU145 cells. In kind it is cell-based. To be noted: SC (1 mM) alone; 3 days. As for the experimental part:
(§6) DU145 prostate cancer cells were cultured in high-glucose Dulbecco’s Modified Eagle’s Medium supplemented with 10% heat-inactivated fetal bovine serum, 2 mM L-glutamine and 50 μg/mL gentamycin (all from Sigma-Aldrich). The cells were plated on 6-well plates and allowed to attach overnight. […] The cells were harvested, and the pellet was mixed with 150 μL of 5% sulphosalicylic acid containing 5 μM diaminoheptane (internal standard). Polyamine analysis was carried out as described previously.

In series [4] the test system is DU145 prostate cancer cells. Kind of series: Intracellular polyamine pools of DU145 cells. In kind it is cell-based. To be noted: SC (1 mM) alone; 3 days. As for the experimental part:
as §6

Substrate in series [5]: N=C(N)NCCC[C@H](N)C(=O)O
Kind of series: E. coli ADC activity assay (HPLC of agmatine). In kind it is biochemical. To be noted: other: partially purified ADC, pH 7.8. As for the experimental part: as §1
[…] After incubation for 30 min (ADC) or 20 min (ODC) at +40 °C, 20 μL of 50% sulphosalicylic acid containing 50 μM diaminoheptane (internal standard) was added and the samples were analyzed for the content of agmatine (ADC) and Put (ODC) with HPLC as described previously. The kinetic parameters and IC50 values were determined with the aid of GraphPad Prism version 5.03 using nonlinear regression analysis.

Chain of E. coli ODC (P21169 whole entry): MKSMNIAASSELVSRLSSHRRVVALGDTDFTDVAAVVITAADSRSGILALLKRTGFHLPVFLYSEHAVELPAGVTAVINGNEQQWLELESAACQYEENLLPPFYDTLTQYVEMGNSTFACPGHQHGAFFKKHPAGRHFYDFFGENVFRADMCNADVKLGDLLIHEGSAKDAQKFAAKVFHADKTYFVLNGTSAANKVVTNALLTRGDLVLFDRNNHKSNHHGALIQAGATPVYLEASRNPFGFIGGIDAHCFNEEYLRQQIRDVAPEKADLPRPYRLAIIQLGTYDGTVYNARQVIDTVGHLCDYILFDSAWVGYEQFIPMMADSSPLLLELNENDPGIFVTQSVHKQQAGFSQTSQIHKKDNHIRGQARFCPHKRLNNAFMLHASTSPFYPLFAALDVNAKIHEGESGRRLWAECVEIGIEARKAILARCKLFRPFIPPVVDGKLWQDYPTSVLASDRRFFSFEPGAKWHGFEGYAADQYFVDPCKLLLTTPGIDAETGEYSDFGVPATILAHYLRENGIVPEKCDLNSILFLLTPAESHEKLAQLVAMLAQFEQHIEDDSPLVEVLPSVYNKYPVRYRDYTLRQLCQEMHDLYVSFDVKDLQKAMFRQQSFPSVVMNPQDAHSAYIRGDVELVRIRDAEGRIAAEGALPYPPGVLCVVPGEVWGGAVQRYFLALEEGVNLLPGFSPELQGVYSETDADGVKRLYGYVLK

For the molecule `NCCC[C@H](N)C(=O)O` [L-Orn, L-ornithine], the Vmax at E. coli ODC (partially purified ODC) is 709 ± 7 nmol/h/mg protein.

Turning to `N=C(N)NCCCC(N)(C(=O)O)C(F)F` (racemic) [DFMA, D,L-α-(difluoromethyl)arginine], at E. coli ADC, inhibition was half-maximal at 10 ± 1 µM (IC50). Besides, the inhibition at 5000 µM came out at 13% in series [1] and 7% in [2] (5 mM inhibitor).

Take `NCCC[C@](N)(C(=O)O)C(F)F` [DFMO, α-(Difluoromethyl)ornithine]: the “Growth inhibition compared with 5 mM” value in series [1] (HY strain, 1 mM inhibitor) is on record as “much less effective”. The inhibition at 5000 µM in series [1] was 41%; in series [2] (5 mM inhibitor), 100%. Moreover, the “Growth inhibition compared with 1 mM APA” value in series [2] (1 mM inhibitor) is listed as “significantly less effective”. In addition, the “Growth of WT strain” value in [2] (5 mM inhibitor) is listed as “completely inhibited”. Moreover, the “Effect of 0.5 mM Spd on the growth arrest caused by the inhibitor” value in series [2] (5 mM inhibitor + 0.5 mM Spd) is reported as “reversed the growth arrest”. The “Potency to inhibit E. coli ODC” value on E. coli ODC (0.1 mM PLP, 15 min preincubation, 7 mM L-Orn) is recorded as “very low potency”. The Put in the series with A. chrysogenum HY strain (5 mM DFMO + 0.5 mM Spd), in the series on A. chrysogenum HY strain (5 mM DFMO), in the series on A. chrysogenum WT strain (5 mM DFMO + 0.5 mM Spd) and in the series on A. chrysogenum WT strain (5 mM DFMO) was less than 10 pmol/mg Dry Weight each time. Besides, the Spd in the series on A. chrysogenum HY strain (5 mM DFMO + 0.5 mM Spd) was 46,630 ± 6700 pmol/mg Dry Weight; with A. chrysogenum HY strain (5 mM DFMO), 410 ± 60 pmol/mg Dry Weight; in the series with A. chrysogenum WT strain (5 mM DFMO + 0.5 mM Spd), 11,530 ± 3690 pmol/mg Dry Weight; with A. chrysogenum WT strain (5 mM DFMO) it was 140 ± 10 pmol/mg Dry Weight. The Spm was 340 ± 56 pmol/mg Dry Weight in the series on A. chrysogenum HY strain (5 mM DFMO + 0.5 mM Spd), 424 ± 39 pmol/mg Dry Weight in the series with A. chrysogenum HY strain (5 mM DFMO), 90 ± 30 pmol/mg Dry Weight in the series with A. chrysogenum WT strain (5 mM DFMO + 0.5 mM Spd) and 170 ± 20 pmol/mg Dry Weight in the series on A. chrysogenum WT strain (5 mM DFMO).

On to `NNC(N)=O` [SC, semicarbazide, reference compound], for which the Growth in series [3] came out at 1.00 ± 0.04 Fold. For the same molecule, in [4], the Put was 1258 ± 157 pmol/mg Protein, the Spd worked out at 6483 ± 282 pmol/mg Protein and the Spm amounted to 3582 ± 146 pmol/mg Protein.

Consider `NCCCCNCCCN` [Spd, spermidine], for which, in the series with A. chrysogenum HY strain (0.5 mM Spd), the Put was less than 10 pmol/mg Dry Weight, the Spd is recorded as 39,180 ± 4840 pmol/mg Dry Weight and the Spm is 330 ± 10 pmol/mg Dry Weight. Further, in the series with A. chrysogenum WT strain (0.5 mM Spd), the Put is listed as less than 10 pmol/mg Dry Weight, the Spd was 12,200 ± 2180 pmol/mg Dry Weight and the Spm is on record as 70 ± 10 pmol/mg Dry Weight.

B1: E. coli ADC (Escherichia coli K-12) (protein)
chain: T1 sequence (P21170 1-658)
notes: The kinetic parameters determined for the partially purified biosynthetic ADC from E. coli; endogenous in cells; host or cells: E. coli DH5α (39-53% ammonium sulphate fraction of the lysate, desalted)
B1: in series [5], the Km was 158 ± 5 µM and the Vmax is 546 ± 5 nmol/h/mg protein.
